Values belong to the molecule of their own block, whether it stands above or below them.
Columns and labels:
[1] = target: T1, ATP-binding cassette sub-family C member 4 (Homo sapiens, UniProt O15439); experiment: TP_TRANSPORTER: inhibition of E217betaG in the presence of Indomethacin at a concentration of 50uM in membrane vesicles from MRP4-expressing Sf9 cells; type: functional, cell membranes, Membrane vesicle; design: scale not given: the % may be the effect or the level left; settings: sf9, 50 µM
T1 sequence (O15439 whole entry): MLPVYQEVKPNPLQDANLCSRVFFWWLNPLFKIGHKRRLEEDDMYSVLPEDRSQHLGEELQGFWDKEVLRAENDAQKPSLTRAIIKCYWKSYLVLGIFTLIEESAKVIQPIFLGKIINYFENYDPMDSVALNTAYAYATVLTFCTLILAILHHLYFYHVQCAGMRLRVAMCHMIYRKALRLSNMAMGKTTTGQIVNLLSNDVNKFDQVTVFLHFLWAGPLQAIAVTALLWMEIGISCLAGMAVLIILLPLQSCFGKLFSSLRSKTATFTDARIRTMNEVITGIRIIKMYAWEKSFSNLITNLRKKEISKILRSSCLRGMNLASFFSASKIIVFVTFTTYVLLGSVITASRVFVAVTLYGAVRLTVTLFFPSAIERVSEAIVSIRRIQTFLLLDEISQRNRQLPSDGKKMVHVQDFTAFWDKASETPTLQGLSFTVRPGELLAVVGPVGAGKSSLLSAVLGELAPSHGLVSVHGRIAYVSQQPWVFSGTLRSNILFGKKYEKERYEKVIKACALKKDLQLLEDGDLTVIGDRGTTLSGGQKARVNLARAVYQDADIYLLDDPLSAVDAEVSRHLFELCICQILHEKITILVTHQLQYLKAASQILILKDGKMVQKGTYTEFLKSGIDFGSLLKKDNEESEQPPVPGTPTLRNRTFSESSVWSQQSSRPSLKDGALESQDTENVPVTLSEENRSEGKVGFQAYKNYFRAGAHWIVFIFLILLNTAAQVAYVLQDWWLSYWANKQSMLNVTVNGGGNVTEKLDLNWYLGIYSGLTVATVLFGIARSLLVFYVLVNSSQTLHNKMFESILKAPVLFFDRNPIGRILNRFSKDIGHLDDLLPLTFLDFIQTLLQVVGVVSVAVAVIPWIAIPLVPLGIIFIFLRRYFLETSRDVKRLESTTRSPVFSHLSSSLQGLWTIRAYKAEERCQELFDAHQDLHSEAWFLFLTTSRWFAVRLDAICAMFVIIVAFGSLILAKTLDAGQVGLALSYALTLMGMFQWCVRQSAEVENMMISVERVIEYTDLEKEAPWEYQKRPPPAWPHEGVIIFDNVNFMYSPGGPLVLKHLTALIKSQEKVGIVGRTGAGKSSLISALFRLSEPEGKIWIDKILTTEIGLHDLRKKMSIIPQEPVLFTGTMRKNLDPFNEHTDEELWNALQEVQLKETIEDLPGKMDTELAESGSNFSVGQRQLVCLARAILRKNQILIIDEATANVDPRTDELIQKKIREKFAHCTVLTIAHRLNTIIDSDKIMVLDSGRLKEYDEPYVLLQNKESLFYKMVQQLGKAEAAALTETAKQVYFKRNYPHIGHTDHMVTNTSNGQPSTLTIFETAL

[2] = target: Multidrug resistance-associated protein 1 (Homo sapiens, UniProt P33527); experiment: TP_TRANSPORTER: inhibition of E217betaG in the presence of Indomethacin at a concentration of 50uM in membrane vesicles from MRP1-expressing Sf9 cells; type: functional, cell membranes, Membrane vesicle; design: scale not given: the % may be the effect or the level left; settings: sf9, 50 µM
[3] = target: T2, MRP4 (ATP-binding cassette sub-family C member 4) (Homo sapiens, UniProt O15439); experiment: TP_TRANSPORTER: inhibition of E217betaG in the presence of Indoprofen at a concentration of 50uM in membrane vesicles from MRP4-expressing Sf9 cells; type: functional, cell membranes, Membrane vesicle; design: scale not given: the % may be the effect or the level left; settings: probe E217betaG, read-out: Activity
T2 sequence (O15439 whole entry): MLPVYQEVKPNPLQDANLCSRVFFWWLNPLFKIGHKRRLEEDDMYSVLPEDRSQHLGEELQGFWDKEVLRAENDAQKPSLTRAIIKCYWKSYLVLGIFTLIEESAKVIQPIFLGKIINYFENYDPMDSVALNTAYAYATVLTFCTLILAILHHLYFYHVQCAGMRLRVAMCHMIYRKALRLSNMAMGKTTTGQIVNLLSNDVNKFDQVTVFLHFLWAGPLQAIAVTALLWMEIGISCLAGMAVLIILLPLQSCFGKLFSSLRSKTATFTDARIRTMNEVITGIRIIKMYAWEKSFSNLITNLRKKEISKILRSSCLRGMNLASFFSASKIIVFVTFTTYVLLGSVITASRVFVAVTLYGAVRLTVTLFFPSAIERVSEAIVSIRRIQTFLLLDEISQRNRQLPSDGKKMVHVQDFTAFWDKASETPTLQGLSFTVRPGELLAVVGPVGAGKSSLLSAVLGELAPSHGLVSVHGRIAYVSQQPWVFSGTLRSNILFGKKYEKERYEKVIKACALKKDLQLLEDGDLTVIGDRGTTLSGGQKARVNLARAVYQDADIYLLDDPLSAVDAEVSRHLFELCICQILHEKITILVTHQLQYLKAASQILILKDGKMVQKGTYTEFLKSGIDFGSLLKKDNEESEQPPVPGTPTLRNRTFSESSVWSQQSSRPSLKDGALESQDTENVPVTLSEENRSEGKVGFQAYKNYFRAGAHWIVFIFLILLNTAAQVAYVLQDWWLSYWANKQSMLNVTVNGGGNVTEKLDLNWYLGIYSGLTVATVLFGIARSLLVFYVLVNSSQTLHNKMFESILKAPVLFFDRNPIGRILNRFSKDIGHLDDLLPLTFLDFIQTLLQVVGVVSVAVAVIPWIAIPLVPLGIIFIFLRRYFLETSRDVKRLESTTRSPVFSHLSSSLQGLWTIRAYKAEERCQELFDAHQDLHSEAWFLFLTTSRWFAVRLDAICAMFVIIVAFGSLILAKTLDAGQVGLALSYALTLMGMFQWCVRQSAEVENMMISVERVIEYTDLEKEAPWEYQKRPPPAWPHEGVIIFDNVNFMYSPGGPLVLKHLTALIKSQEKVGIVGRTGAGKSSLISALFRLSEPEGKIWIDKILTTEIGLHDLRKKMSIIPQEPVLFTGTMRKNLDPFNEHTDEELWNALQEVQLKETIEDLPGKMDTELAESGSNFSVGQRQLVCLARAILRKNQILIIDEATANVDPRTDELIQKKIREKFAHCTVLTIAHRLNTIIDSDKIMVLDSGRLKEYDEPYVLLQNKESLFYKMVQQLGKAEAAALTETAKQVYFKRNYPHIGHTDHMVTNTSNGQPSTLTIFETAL

[4] = target: T1, ATP-binding cassette sub-family C member 4; experiment: TP_TRANSPORTER: inhibition of E217betaG in the presence of Ketoprofen at a concentration of 50uM in membrane vesicles from MRP4-expressing Sf9 cells; type: functional, cell membranes, Membrane vesicle; design: scale not given: the % may be the effect or the level left; settings: sf9, 50 µM
[5] = target: Multidrug resistance associated protein (Homo sapiens) (UniProt Q96QA9); experiment: TP_TRANSPORTER: inhibition of alaninyl-d4TMP by Prostaglandin A1 at a concentration of 20uM in membrane vesicle from MRP3-expressing Sf9 cells; type: functional, cell membranes; design: scale not given: the % may be the effect or the level left
[6] = target: T1, ATP-binding cassette sub-family C member 4; experiment: TP_TRANSPORTER: inhibition of alaninyl-d4TMP in the presence of Prostaglandin A1 at a concentration of 20uM in membrane vesicles from MRP4-expressing Sf9 cells; type: functional, cell membranes, Membrane vesicle; design: scale not given: the % may be the effect or the level left; settings: sf9, 20 µM
[7] = target: MRP5 (ATP-binding cassette sub-family C member 5) (Homo sapiens, UniProt O15440); experiment: TP_TRANSPORTER: inhibition of alaninyl-d4TMP by Prostaglandin A1 at a concentration of 20uM in membrane vesicle from MRP5-expressing HEK293 cells; type: functional, cell membranes; design: scale not given: the % may be the effect or the level left; settings: probe alaninyl-d4TMP, read-out: Activity
[8] = target: T2, MRP4 (ATP-binding cassette sub-family C member 4); experiment: TP_TRANSPORTER: inhibition of alaninyl-d4TMP in the presence of Prostaglandin F1alpha at a concentration of 20uM in membrane vesicles from MRP4-expressing Sf9 cells; type: functional, cell membranes, Membrane vesicle; design: scale not given: the % may be the effect or the level left; settings: probe alaninyl-d4TMP, read-out: Activity
[9] = target: T1, ATP-binding cassette sub-family C member 4; experiment: TP_TRANSPORTER: inhibition of E217betaG in the presence of Rofecoxib at a concentration of 100uM in membrane vesicles from MRP4-expressing Sf9 cells; type: functional, cell membranes, Membrane vesicle; design: scale not given: the % may be the effect or the level left; settings: sf9, 100 µM
[10] = target: MRP1 (Multidrug resistance-associated protein 1) (Homo sapiens, UniProt P33527); experiment: TP_TRANSPORTER: inhibition of alaninyl-d4TMP in the presence of Thromboxane B2 at a concentration of 20uM in membrane vesicles from MRP1-expressing Sf9 cells; type: functional, cell membranes, Membrane vesicle; design: scale not given: the % may be the effect or the level left; settings: probe alaninyl-d4TMP, read-out: Activity
[11] = target: T2, MRP4 (ATP-binding cassette sub-family C member 4); experiment: TP_TRANSPORTER: inhibition of alaninyl-d4TMP in the presence of Thromboxane B2 at a concentration of 20uM in membrane vesicles from MRP4-expressing Sf9 cells; type: functional, cell membranes, Membrane vesicle; design: scale not given: the % may be the effect or the level left; settings: probe alaninyl-d4TMP, read-out: Activity
[12] = target: Multidrug resistance associated protein (Homo sapiens) (UniProt Q96QA9); experiment: TP_TRANSPORTER: inhibition of alaninyl-d4TMP by Thromboxane B2 at a concentration of 20uM in membrane vesicle from MRP3-expressing Sf9 cells; type: functional, cell membranes; design: scale not given: the % may be the effect or the level left
[13] = target: ATP-binding cassette sub-family C member 5 (Homo sapiens, UniProt O15440); experiment: TP_TRANSPORTER: inhibition of alaninyl-d4TMP by Thromboxane B2 at a concentration of 20uM in membrane vesicle from MRP5-expressing HEK293 cells; type: functional, cell membranes; design: scale not given: the % may be the effect or the level left; settings: hek293, 20 µM
[14] = substrate: CCCCC[C@H](O)/C=C/[C@H]1[C@H](O)CC(=O)[C@@H]1C/C=C\CCCC(=O)O; experiment: (§1) TP_TRANSPORTER: uptake (vesicle) in membrane vesicles from MRP4-expressing Sf9 cells; type: functional, cell membranes
[15] = substrate: CCCCC[C@H](O)/C=C/[C@H]1[C@H](O)CC(=O)[C@@H]1CCCCCCC(=O)O; experiment: as §1; type: functional, cell membranes

Sequence of Multidrug resistance associated protein (Homo sapiens) (Q96QA9 as listed by the source): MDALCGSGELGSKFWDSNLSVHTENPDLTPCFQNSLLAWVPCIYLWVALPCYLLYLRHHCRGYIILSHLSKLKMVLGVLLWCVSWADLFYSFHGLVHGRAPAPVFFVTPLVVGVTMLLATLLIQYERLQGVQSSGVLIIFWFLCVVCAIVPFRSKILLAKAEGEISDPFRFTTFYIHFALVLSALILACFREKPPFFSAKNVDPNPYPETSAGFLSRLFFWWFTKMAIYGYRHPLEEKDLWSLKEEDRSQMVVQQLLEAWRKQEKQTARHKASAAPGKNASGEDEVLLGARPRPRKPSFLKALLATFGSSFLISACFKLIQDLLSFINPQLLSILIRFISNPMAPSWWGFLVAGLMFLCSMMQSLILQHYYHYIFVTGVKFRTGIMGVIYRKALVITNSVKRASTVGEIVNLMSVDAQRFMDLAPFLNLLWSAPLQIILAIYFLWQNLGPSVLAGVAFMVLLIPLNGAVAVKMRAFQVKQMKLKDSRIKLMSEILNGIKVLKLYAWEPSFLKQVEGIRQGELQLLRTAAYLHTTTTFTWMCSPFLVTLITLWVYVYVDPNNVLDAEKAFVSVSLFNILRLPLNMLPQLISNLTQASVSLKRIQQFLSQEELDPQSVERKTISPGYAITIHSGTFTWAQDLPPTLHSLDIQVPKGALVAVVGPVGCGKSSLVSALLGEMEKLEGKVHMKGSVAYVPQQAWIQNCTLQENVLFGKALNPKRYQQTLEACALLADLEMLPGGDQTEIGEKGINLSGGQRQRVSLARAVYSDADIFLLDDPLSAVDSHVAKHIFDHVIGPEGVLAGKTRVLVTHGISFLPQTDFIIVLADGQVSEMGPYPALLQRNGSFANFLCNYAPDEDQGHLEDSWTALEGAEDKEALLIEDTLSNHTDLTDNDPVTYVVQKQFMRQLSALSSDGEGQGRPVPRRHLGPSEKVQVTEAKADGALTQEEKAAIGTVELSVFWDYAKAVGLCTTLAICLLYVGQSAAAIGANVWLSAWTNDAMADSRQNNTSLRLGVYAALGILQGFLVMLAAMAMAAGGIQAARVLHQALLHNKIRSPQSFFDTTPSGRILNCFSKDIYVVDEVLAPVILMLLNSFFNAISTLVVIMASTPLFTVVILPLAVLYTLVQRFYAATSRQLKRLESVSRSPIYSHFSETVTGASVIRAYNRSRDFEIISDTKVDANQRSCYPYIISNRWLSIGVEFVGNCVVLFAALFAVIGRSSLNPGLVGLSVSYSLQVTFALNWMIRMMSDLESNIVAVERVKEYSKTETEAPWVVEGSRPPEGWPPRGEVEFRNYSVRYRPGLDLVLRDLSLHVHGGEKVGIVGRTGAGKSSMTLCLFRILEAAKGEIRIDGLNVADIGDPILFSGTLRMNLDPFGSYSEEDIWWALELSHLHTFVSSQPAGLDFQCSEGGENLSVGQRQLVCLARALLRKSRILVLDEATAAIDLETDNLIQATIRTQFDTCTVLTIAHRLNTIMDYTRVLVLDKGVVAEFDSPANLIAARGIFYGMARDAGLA
Sequence of ATP-binding cassette sub-family C member 5 (O15440 whole entry): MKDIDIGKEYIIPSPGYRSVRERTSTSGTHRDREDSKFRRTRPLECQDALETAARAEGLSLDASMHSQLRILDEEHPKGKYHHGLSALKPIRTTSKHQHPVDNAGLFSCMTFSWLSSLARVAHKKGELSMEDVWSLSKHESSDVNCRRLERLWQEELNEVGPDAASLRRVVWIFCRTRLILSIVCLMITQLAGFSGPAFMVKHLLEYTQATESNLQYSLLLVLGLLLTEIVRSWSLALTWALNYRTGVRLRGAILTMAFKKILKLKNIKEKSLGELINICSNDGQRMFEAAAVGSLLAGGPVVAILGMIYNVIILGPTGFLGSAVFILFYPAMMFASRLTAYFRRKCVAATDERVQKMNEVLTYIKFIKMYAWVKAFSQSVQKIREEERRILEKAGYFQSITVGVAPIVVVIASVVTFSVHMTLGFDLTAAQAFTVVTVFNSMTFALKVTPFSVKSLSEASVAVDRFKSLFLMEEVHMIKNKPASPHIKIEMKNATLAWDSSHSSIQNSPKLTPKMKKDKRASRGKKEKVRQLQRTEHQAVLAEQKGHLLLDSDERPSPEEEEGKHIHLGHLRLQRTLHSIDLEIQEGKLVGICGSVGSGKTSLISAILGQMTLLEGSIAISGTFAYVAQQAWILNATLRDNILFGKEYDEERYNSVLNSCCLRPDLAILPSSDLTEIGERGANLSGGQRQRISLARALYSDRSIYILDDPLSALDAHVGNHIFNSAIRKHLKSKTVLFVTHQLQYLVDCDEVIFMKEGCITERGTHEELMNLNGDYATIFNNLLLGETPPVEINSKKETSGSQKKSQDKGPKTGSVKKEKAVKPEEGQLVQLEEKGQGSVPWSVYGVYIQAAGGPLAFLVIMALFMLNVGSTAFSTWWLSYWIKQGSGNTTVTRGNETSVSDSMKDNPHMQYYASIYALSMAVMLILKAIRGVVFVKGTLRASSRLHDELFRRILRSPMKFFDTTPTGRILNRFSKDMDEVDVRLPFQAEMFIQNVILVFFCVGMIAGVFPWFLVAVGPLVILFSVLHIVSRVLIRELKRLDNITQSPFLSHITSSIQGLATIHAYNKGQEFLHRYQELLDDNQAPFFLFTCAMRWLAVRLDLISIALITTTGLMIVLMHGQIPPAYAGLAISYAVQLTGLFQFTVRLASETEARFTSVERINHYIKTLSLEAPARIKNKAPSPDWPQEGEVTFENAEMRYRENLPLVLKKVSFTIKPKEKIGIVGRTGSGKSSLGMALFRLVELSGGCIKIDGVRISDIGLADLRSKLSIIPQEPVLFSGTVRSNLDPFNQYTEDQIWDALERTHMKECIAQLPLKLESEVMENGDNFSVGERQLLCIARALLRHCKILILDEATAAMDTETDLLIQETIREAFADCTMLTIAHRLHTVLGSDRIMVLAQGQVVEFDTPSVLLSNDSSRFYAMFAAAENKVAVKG
Sequence of MRP5 (ATP-binding cassette sub-family C member 5) (O15440 whole entry): as above

Activity [5]: 76%
Activity [6]: 2%
activity at 20 µM [7]: 51%
Molecule: CCCCC[C@H](O)/C=C/[C@H]1C=CC(=O)[C@@H]1CCCCCCC(=O)O [PROSTAGLANDIN A1]

activity at 20 µM [10]: 66%
activity at 20 µM [11]: 29%
Activity [12]: 76%
Activity [13]: 77%
Molecule: CCCCC[C@H](O)/C=C/[C@H]1OC(O)C[C@H](O)[C@@H]1C/C=C\CCCC(=O)O (stereo not given in full) [THROMBOXANE B2]

More lines, now with the values behind:

Molecule: COc1ccc2c(c1)c(CC(=O)O)c(C)n2C(=O)c1ccc(Cl)cc1 [INDOMETHACIN]
Activity [1]: 11%
Activity [2]: 56%

Molecule: CC(C(=O)O)c1ccc(N2Cc3ccccc3C2=O)cc1 (stereo not given) [INDOPROFEN]
activity at 50 µM [3]: 17%

Molecule: CC(C(=O)O)c1cccc(C(=O)c2ccccc2)c1 (stereo not given) [KETOPROFEN]
Activity [4]: 35%

Molecule: CCCCC[C@H](O)/C=C/[C@@H]1[C@@H](CCCCCCC(=O)O)[C@@H](O)C[C@H]1O [PROSTAGLANDIN F1ALPHA]
activity at 20 µM [8]: 29%

Molecule: CS(=O)(=O)c1ccc(C2=C(c3ccccc3)C(=O)OC2)cc1 [ROFECOXIB]
Activity [9]: 80%

B1: ATP-binding cassette sub-family C member 4 (Homo sapiens) (protein)
chain: MLPVYQEVKPNPLQDANLCSRVFFWWLNPLFKIGHKRRLEEDDMYSVLPEDRSQHLGEELQGFWDKEVLRAENDAQKPSLTRAIIKCYWKSYLVLGIFTLIEESAKVIQPIFLGKIINYFENYDPMDSVALNTAYAYATVLTFCTLILAILHHLYFYHVQCAGMRLRVAMCHMIYRKALRLSNMAMGKTTTGQIVNLLSNDVNKFDQVTVFLHFLWAGPLQAIAVTALLWMEIGISCLAGMAVLIILLPLQSCFGKLFSSLRSKTATFTDARIRTMNEVITGIRIIKMYAWEKSFSNLITNLRKKEISKILRSSCLRGMNLASFFSASKIIVFVTFTTYVLLGSVITASRVFVAVTLYGAVRLTVTLFFPSAIERVSEAIVSIRRIQTFLLLDEISQRNRQLPSDGKKMVHVQDFTAFWDKASETPTLQGLSFTVRPGELLAVVGPVGAGKSSLLSAVLGELAPSHGLVSVHGRIAYVSQQPWVFSGTLRSNILFGKKYEKERYEKVIKACALKKDLQLLEDGDLTVIGDRGTTLSGGQKARVNLARAVYQDADIYLLDDPLSAVDAEVSRHLFELCICQILHEKITILVTHQLQYLKAASQILILKDGKMVQKGTYTEFLKSGIDFGSLLKKDNEESEQPPVPGTPTLRNRTFSESSVWSQQSSRPSLKDGALESQDTENVPVTLSEENRSEGKVGFQAYKNYFRAGAHWIVFIFLILLNTAAQVAYVLQDWWLSYWANKQSMLNVTVNGGGNVTEKLDLNWYLGIYSGLTVATVLFGIARSLLVFYVLVNSSQTLHNKMFESILKAPVLFFDRNPIGRILNRFSKDIGHLDDLLPLTFLDFIQTLLQVVGVVSVAVAVIPWIAIPLVPLGIIFIFLRRYFLETSRDVKRLESTTRSPVFSHLSSSLQGLWTIRAYKAEERCQELFDAHQDLHSEAWFLFLTTSRWFAVRLDAICAMFVIIVAFGSLILAKTLDAGQVGLALSYALTLMGMFQWCVRQSAEVENMMISVERVIEYTDLEKEAPWEYQKRPPPAWPHEGVIIFDNVNFMYSPGGPLVLKHLTALIKSQEKVGIVGRTGAGKSSLISALFRLSEPEGKIWIDKILTTEIGLHDLRKKMSIIPQEPVLFTGTMRKNLDPFNEHTDEELWNALQEVQLKETIEDLPGKMDTELAESGSNFSVGQRQLVCLARAILRKNQILIIDEATANVDPRTDELIQKKIREKFAHCTVLTIAHRLNTIIDSDKIMVLDSGRLKEYDEPYVLLQNKESLFYKMVQQLGKAEAAALTETAKQVYFKRNYPHIGHTDHMVTNTSNGQPSTLTIFETAL
Km [14]: 3.4 µM
Km [15]: 2.1 µM
